Values of other authors as cited in patent publication US12502395B2, “Progestin/testosterone transdermal gel” (The Population Council, Inc., priority 2022, dated 2025).

Legend:
[1] = system: androgenic, estrogenic, or glucocorticoid actions; conditions: at up to x2000 the therapeutic levels
[2] = most common adverse event; 100 mg/day of T
pregnancy = conditions: weekly intramuscular injection of 200 mg/week for 12 months

C=C1C[C@H]2[C@@H]3CCC4=CC(=O)CC[C@@H]4[C@H]3CC[C@]2(C)[C@@]1(OC(C)=O)C(C)=O [NES, 16-methylene-17α-acetoxy-19-norpregn-4-ene-3,20-dione]
Androgenic, estrogenic, or glucocorticoid actions [1]: does not carry androgenic, estrogenic, or glucocorticoid actions

C[C@]12CC[C@H]3[C@@H](CCC4=CC(=O)CC[C@@]43C)[C@@H]1CC[C@@H]2O [T, Testosterone]
Acne, % of subjects [2]: 21%

CCCCCCC(=O)O[C@H]1CC[C@H]2[C@@H]3CCC4=CC(=O)CC[C@]4(C)[C@H]3CC[C@]12C [testosterone enanthate]
Pregnancy rate (pregnancy): 0.8 pregnancy per 100 person-years of exposure
